According to patent publication US8993637B2 (priority 2013, dated 2015):

How the values were obtained:
RAW 264.7 macrophages = experiment: ROS production assay in LPS-activated macrophages; format: cell-based, murine; details: Citral 10 μg/ml; 30 min before and during LPS (1 μg/ml) stimulation, 0-4 h
Description: ROS production was measured as the relative fluorescence intensity. […] The data are expressed as the mean±SD for three separate experiments. *p<0.05, **p<0.01 compared to the LPS-treated group. RAW-Blue™ cells (Murine macrophages RAW264.7 stably transfected with the NF-κB reporter gene) purchased from InvivoGen (San Diego, Calif.). LPS (from Escherichia coli 0111:B4) and mouse antibodies against phospho-ERK1/2, phospho-JNK1/2, and phospho-p38 (all from Sigma, St. Louis, Mo.). Rabbit antibodies against mouse ERK1, JNK1, and p38, and HRP-labeled second antibodies were purchased from Santa Cruz Biotechnology, and IL-1β, IL-6, and TNF-α ELISA kits from R&D Systems. ROS production assay, NO production assay, NF-κB reporter assay, ELISA, and Western blotting were performed as described previously.

[1] = tested on: p47phox, Nrf2, NQO1, HO-1; experiment: Mouse FSGS model: renal p47phox, nuclear Nrf2, NQO1 (Western blot) and HO-1 (ELISA); format: in vivo
Description: A progressive type of mouse FSGS model was used, particularly characterized by EPHLs, a key histopathology index of progression of FSGS, peri-glomerular inflammation, and progressive glomerular hyalinosis/sclerosis. The FSGS model was induced in 8-week-old male BALB/c mice (National Laboratory Animal Center, Taipei, Taiwan) by intravenous injection of a single dose of adriamycin (0.10 mg/10 g body weight) (Pfizer, New York, N.Y.) as described previously. […] Age- and sex-matched BALB/c mice were used as normal controls. Urine samples were collected in metabolic cages on days 3, 7, 14, 21, and 28. Renal cortical tissues and blood samples were collected when the mice were sacrificed and stored appropriately for further analysis. The concentration of urine protein was determined using BCA kits (Pierce, Rockford, Ill.) as described previously and normalized to urine creatinine (Cr) levels measured using kits (Wako Pure Chemical Industries, Osaka, Japan), as described previously. Serum levels of blood urea nitrogen (BUN) and Cr were determined using BUN kits and Cr kits (both from Fuji Dry-Chem Slide, Fuji Film Medical, Tokyo, Japan), as described previously. Cytoplasmic and nuclear proteins from renal tissues were prepared using a kit (Active Motif, Tokyo, Japan) according to the manufacturer's instructions and target proteins detected by immunoblotting using goat antibodies against mouse Nrf2 or p47^phox, (Santa Cruz Biotechnology, Santa Cruz, Calif.) or rabbit antibodies against mouse NQO1 (Abcam), caspase-3, caspase-8, or caspase-9 (all from Cell Signaling Technology, MA) or Bcl2 or Bax (both from Santa Cruz Biotechnology), then with horseradish-conjugated rabbit anti-goat IgG antibodies or goat-anti-rabbit IgG antibodies (both from Santa Cruz Biotechnology) as described previously. Anti-β-actin antibody (Santa Cruz Biotechnology) was used as internal controls for the nuclear and cytosolic target proteins, respectively. Renal HO-1 levels were measured using a commercial ELISA kit (R&D Systems, Minneapolis, Minn.) according to the manufacturer's instructions.

CC(C)=CCCC(C)=CC=O (racemic) [Citral, 3,7-dimethyl-2,6-octadienal]
LPS-induced increase in ROS production (RAW 264.7 macrophages): reduced
decrease of nuclear Nrf2 expression ([1]; day 14, kidney): inhibited at day 14 in FSGS+Citral mice, although not statistically significant
increase of renal p47phox protein levels ([1]; day 28, cytosolic, p<0.01): inhibited
cytosolic levels of NQO1 ([1]; day 28, relative to normal control mice, p<0.01): significantly higher
nuclear Nrf2 levels ([1]; day 28, vs FSGS+vehicle (p<0.005) and normal control mice (p<0.05)): greatly increased
renal HO-1 levels ([1]; days 14 and 28, vs FSGS+vehicle mice, p<0.05 or p<0.01): significantly elevated
